# Results reported in PMC8284454, “In Vitro Profiling of Antitubercular Compounds by Rapid, Efficient, and Nondestructive Assays Using Autoluminescent Mycobacterium tuberculosis” (Antimicrobial Agents and Chemotherapy, 2021).
# Like-named read-outs stand apart in the source and are kept apart here. Marks after values point to notes of the source that are not given here.
# Key:
# [1] = test system: M. tuberculosis H37Rv_LuxABCDE; test: luminescence-based MBC assay (LMBCA) / time-kill; assay type: cell-based, Mycobacterium tuberculosis; conditions: for change of MBC values over time: over 21 days, luminescence time-kill; for time and/or concentration dependence of bactericidal activity: time-kill curves up to day 21
# [2] = test system: M. tuberculosis H37Rv_LuxABCDE; test: microbe, parasite or virus in culture; assay type: cell-based, Mycobacterium tuberculosis; conditions: day 7, SD from three independent experiments; for MBC: Mycobacterium tuberculosis, read-out: MBC (±SD) via CFU
# [3] = test system: M. tuberculosis H37Rv_LuxABCDE; test: luminescence-based MIC assay (LMICA); conditions: for MIC (±SD) LMICA: 90% reduction of luminescence, 7 days, 7H12 medium, SD from three independent experiments
# [4] = test system: M. tuberculosis H37Rv_LuxABCDE; test: microplate alamarBlue assay (MABA) MIC; conditions: 90% reduction of fluorescence, 7 days, 7H12 medium; SD from three independent experiments
# [5] = test system: J774-internalized M. tuberculosis (H37Rv); test: intracellular activity by luminescence (EC90); assay type: cell-based, Mycobacterium tuberculosis; conditions: for EC90: RLU
# [6] = test system: M. tuberculosis H37Rv_LuxABCDE; test: postantibiotic effect by luminescence (RLU); assay type: cell-based, Mycobacterium tuberculosis; conditions: 1.5 log10 RLU increase, 1:10,000-fold dilution
# [7] = test system: M. tuberculosis H37Rv_LuxABCDE; assay type: cell-based, Mycobacterium tuberculosis; conditions: 1:10,000-fold dilution
# [8] = test system: infected J774
# [9] = test system: J774 infected with M. tuberculosis strain Erdman; conditions: read-out: Literature reported EC90; cited from earlier work
# [10] = test system: macrophage-internalized M. tuberculosis; conditions: EC90; read-out: Literature reported EC90; cited from earlier work
# [11] = Mycobacterium tuberculosis, 168 h, day 7, 99% reduction in RLU vs T0, SD from three independent experiments, read-out: MBC (±SD) via luminescence
# [12] = Mycobacterium tuberculosis, 336 h, day 14, 99% reduction in RLU vs T0, read-out: MBC (±SD) by luminescence on day 14
# [13] = Mycobacterium tuberculosis, 504 h, day 21, 99% reduction in RLU vs T0, read-out: MBC (±SD) by luminescence on day 21
# [14] = day 7, 99% reduction in RLU vs T0, SD from three independent experiments
Molecule,"MBC [1, 11] [µM]","MBC [1, 12] [µM]","MBC [1, 13] [µM]",change of MBC values over time [1],time and/or concentration dependence of bactericidal activity [1],MBC [2] [µM],MIC (±SD) LMICA [3],MIC (±SD) MABA [4],"MBC (±SD) via luminescence [1, 14]",MBC (±SD) via CFU [2],other results
CC(=O)NC[C@H]1CN(c2ccc(N3CCOCC3)c(F)c2)C(=O)O1 [Linezolid],9.6,7,6,decreased,mainly time dependent,> 29,1.7 (0.23) μM,1.7 (0.10) μM,,,
Capreomycin,,,,increase,,,0.53 (0.07) μM,0.70 (0.03) μM,1.3 (0.4) μM,1.7 (0.9) μM,"MBC (±SD) by luminescence on day 14 ([1]; day 14, 99% reduction in RLU vs T0): 6.94 (3.8) µM; MBC (±SD) by luminescence on day 21 ([1]; day 21, 99% reduction in RLU vs T0): 13.65 (2.34) µM"
C/C=C/C[C@@H]1NC(=O)[C@H](CC(C)C)N2C(=O)[C@H](C[C@H](C)C2O)N(C)C(=O)[C@H](C)NC(=O)[C@H](Cc2ccc(O)c([N+](=O)[O-])c2)NC(=O)[C@H](CC(C)C)N(C)C(=O)[C@H](Cc2cn(C(C)(C)C3CO3)c3ccccc23)NC1=O (some centres unmarked) [Rufomycin],,,,decreased,mainly time dependent,,0.010 (0.001) μM,0.032 (0.012) μM,>1^c μM,>1^b μM,"bactericidal or bacteriostatic activity [1]: bacteriostatic; MBC ([1]; day 7, 99% reduction in RLU vs T0, SD from three independent experiments, read-out: MBC (±SD) via luminescence): > 1 µM; MBC ([1]; day 14, 99% reduction in RLU vs T0, read-out: MBC (±SD) by luminescence on day 14): > 1 µM; EC90 ([5]; EC90, day 3, J774 macrophages, read-out: Intracellular activity, EC90 (±SD) Day 3): > 10 µM; EC90 ([5]; EC90, day 5, J774 macrophages, read-out: Intracellular activity, EC90 (±SD) Day 5): 3.06 µM; EC90 ([5]; EC90, day 7, J774 macrophages, read-out: Intracellular activity, EC90 (±SD) Day 7): 1.52 µM; percent inhibition at the highest tested concentration, intracellular activity Day 3 ([5]; day 3, 10 μM): 69%; PAE 1× MIC RLU ([6]; 3 h exposure at 1× MIC): 0 h; PAE 10× MIC RLU ([6]; 3 h exposure at 10× MIC): 40 h; PAE 100× MIC RLU ([6]; 3 h exposure at 100× MIC): 96 h; PAE 1× MIC CFU/ml ([7]; 3 h exposure at 1× MIC): 0 h; PAE 10× MIC CFU/ml ([7]; 3 h exposure at 10× MIC): 48 h; PAE 100× MIC CFU/ml ([7]; 3 h exposure at 100× MIC): 110 h; Toxicity against infected J774, percent inhibition at the highest tested concentration ([8]; day 7, 10 μM): 10 (8)* percent; EC90 [9]: ~0.1 µM; MIC lower than ecumicin ([3]; ratio of MICs of Table 1): 7 fold"
COc1c(N2C[C@@H]3CCCN[C@@H]3C2)c(F)cc2c(=O)c(C(=O)O)cn(C3CC3)c12 [Moxifloxacin],0.91,0.42,0.46,decreased,both time and concentration dependent,0.753,0.13 (0.02) μM,0.24 (0.04) μM,,,
CC(C)/N=c1\cc2n(-c3ccc(Cl)cc3)c3ccccc3nc-2cc1Nc1ccc(Cl)cc1 [Clofazimine],1.81,0.82,1.01,decreased,both time and concentration dependent,> 4,,0.014 (0.02) μM,1.8 (0.19) μM,,"EC90 ([5]; Mycobacterium tuberculosis, H37RV, 72 h, EC90, day 3, J774 macrophages, read-out: Intracellular activity, EC90 (±SD) Day 3): 19 µM; EC90 ([5]; Mycobacterium tuberculosis, H37RV, 120 h, EC90, day 5, J774 macrophages, read-out: Intracellular activity, EC90 (±SD) Day 5): 6.69 µM; EC90 ([5]; Mycobacterium tuberculosis, H37RV, 168 h, EC90, day 7, J774 macrophages, read-out: Intracellular activity, EC90 (±SD) Day 7): 3.7 µM; onset of growth inhibition of internalized M. tuberculosis ([5]; early = EC90 obtainable by day 3, late = EC90 obtainable by day 5 or later): early growth inhibition; Toxicity against infected J774, percent inhibition at the highest tested concentration ([8]; day 7, 50 μM): 50 (45)* percent; EC90 [10]: ~2.1 µM"
